According to patent US10179790B2 (THOMAS HELLEDAYS STIFTELSE FOR MEDICINSK FORSKNING, priority 2014, dated 2019):

These compounds were tested on cancer cell (assay: Cell viability assay (resazurin)). Conditions: 72 h; 3 days with compound, resazurin fluorescence; cell line not named.
Assay type: cell-based
Procedure: The utility of the compounds of the present invention can be illustrated, for example, by their activity in vitro in the cancer cell clonogenic and/or viability assay described below. The link between activity in tumor cell clonogenic assay and anti-tumor activity in the clinical setting has been well established in the art (e.g. see ref Silverstini et al Stem Cells 1993, 11(6), 258-35).
Cells are seeded into 96 well plates (1000-3000 cells/well) in DMEM GlutaMAX™ or other suitable media dependent on cell line and incubated overnight in 5% CO2, 37° C. Thereafter cells are treated with compound or vehicle and left in incubator for 3 days until staining with resazurin. Cells are incubated in resazurin (diluted in suitable media) at 37° C. for 2 hours before measuring the fluorescence (Ex544/Em590).
The compounds to be tested are nano-dispensed in 11 concentrations, directly in 384-well cell plates, with a final DMSO concentration <1%. Cells are seeded in cell plates, pre-dispensed with compounds, 50 μl/well (600-1200 cells/well). After 3 days culture in 5% CO2, 37° C., resazurin diluted in PBS is added, 10 μl/well, and cells are incubated 3 hours before measuring fluorescence (Ex544/Em590).

Compound | IC50 [nM]
Cc1c(Cl)cccc1-c1cc(NCCc2ccc(S(C)(=O)=O)cc2)nc(N)n1 [Example 1, 6-(3-chloro-2-methylphenyl)-4-N-[2-(4-methanesulfonylphenyl)ethyl]pyrimidine-2,4-diamine] | < 500
Cc1cccc(-c2cc(NCCCNc3ccc(S(N)(=O)=O)cn3)nc(N)n2)c1C [Example 2, 6-[(3-{[2-amino-6-(2,3-dimethylphenyl)pyrimidin-4-yl]amino}propyl)amino]pyridine-3-sulfonamide] | < 500
CNS(=O)(=O)c1ccc(NCCNc2cc(-c3cccc(C)c3C)nc(N)n2)nc1 [Example 3, 6-[(2-{[2-amino-6-(2,3-dimethylphenyl)pyrimidin-4-yl]amino}ethyl)amino]-N-methylpyridine-3-sulfonamide] | < 500
Cc1cccc(-c2cc(NCCNc3ccc(S(C)(=O)=O)nc3)nc(N)n2)c1C [Example 13, 6-(2,3-dimethylphenyl)-4-N-{2-[(6-methanesulfonylpyridin-3-yl)amino]ethyl}pyrimidine-2,4-diamine] | < 500

These compounds were tested against MTH1 (Homo sapiens, UniProt P36639) (assay: MTH1 enzymatic assay and IC50 value determination (malachite green, 96- and 384-well format)). Conditions: hydrolysis of dGTP (100 μM), MTH1 6 nM, pyrophosphatase-coupled malachite green, 15 minutes at 22° C.
Assay type: biochemical
Procedure: MTH1 Enzymatic Assay and IC50 Value Determination
MTH1 catalyzes the hydrolysis of dGTP to dGMP and PPi. By coupling the reaction to pyrophosphatase added in excess PPi is converted to Pi that can be detected by using the malachite green assay reagent. Two different formats were used for IC50 determinations in the enzymatic assay, 96- and 384-well format. 96-Well Method:
Briefly, the compound to be analyzed is diluted in DMSO in a 1:3 dilution series generating 12 different compound concentrations giving a final DMSO concentration of 1% in the assay well. MTH1 diluted in assay buffer (100 mM Tris-acetate, 40 mM NaCl, 10 mM magnesium acetate, 1 mM DTT and 0.005% Tween 20) fortified with E. coli pyrophosphatase (0.2 U/ml) is added to a final concentration of 6 nM. dGTP diluted in assay buffer is added to a final concentration of 100 μM. The reaction mixture is incubated for 15 minutes at 22° C. To 100 μl reaction mixture, 25 μl Malachite green assay regent (0.095% Malachite green in 17% H2SO4, 1.5% Ammonium molybdate, 0.17% Tween 20) is added, followed by incubation with shaking for 15 minutes at 22° C. The absorbance of the assay plate is read at 630 nm using a Hidex Sense Multilabel plate reader. The IC50 value is determined by fitting a dose response curve to the data points using nonlinear regression analysis and the equation Y=Bottom+(Top−Bottom)/(1+10^((Log IC50−X)*HillSlope)), where Y is the read absorbance at 630 nm and X is log [compound].
The compounds to be tested are nano-dispensed, in 11 concentrations, directly in assay plates, with a final DMSO concentration <1%. The protocol and the reaction mixture are the same as for the 96-well assay, with a total reaction volume of 50 μl/well to which 10 μl of Malachite green reagent is added. All additions to the assay plates are made with multidrop.

Compound | IC50 [nM]
Cc1c(Cl)cccc1-c1cc(NCCc2ccc(S(C)(=O)=O)cc2)nc(N)n1 [Example 1, 6-(3-chloro-2-methylphenyl)-4-N-[2-(4-methanesulfonylphenyl)ethyl]pyrimidine-2,4-diamine] | < 200
Cc1cccc(-c2cc(NCCCNc3ccc(S(N)(=O)=O)cn3)nc(N)n2)c1C [Example 2, 6-[(3-{[2-amino-6-(2,3-dimethylphenyl)pyrimidin-4-yl]amino}propyl)amino]pyridine-3-sulfonamide] | < 200
CNS(=O)(=O)c1ccc(NCCNc2cc(-c3cccc(C)c3C)nc(N)n2)nc1 [Example 3, 6-[(2-{[2-amino-6-(2,3-dimethylphenyl)pyrimidin-4-yl]amino}ethyl)amino]-N-methylpyridine-3-sulfonamide] | < 200
Cc1cccc(-c2cc(NCCNc3ccc(S(C)(=O)=O)nc3)nc(N)n2)c1C [Example 13, 6-(2,3-dimethylphenyl)-4-N-{2-[(6-methanesulfonylpyridin-3-yl)amino]ethyl}pyrimidine-2,4-diamine] | < 200
CC(C)(C)OC(=O)N1CC=C(c2cc(NCCc3ccc(S(N)(=O)=O)cc3)nc(N)n2)CC1 [Example 131, tert-butyl 4-(2-amino-6-{[2-(4-sulfamoylphenyl)ethyl]amino}pyrimidin-4-yl)-1,2,3,6-tetrahydropyridine-1-carboxylate] | < 200
Nc1nc(NCCc2ccc(S(N)(=O)=O)cc2)cc(C2=CCCCCC2)n1 [Example 132, 4-(2-{[2-amino-6-(cyclohept-1-en-1-yl)pyrimidin-4-yl]amino}ethyl)benzene-1-sulfonamide] | < 200
Nc1nc(NCCc2ccc(S(N)(=O)=O)cc2)cc(C2CCCCCC2)n1 [Example 134, 4-{2-[(2-amino-6-cycloheptylpyrimidin-4-yl)amino]ethyl}benzene-1-sulfonamide] | < 200
CC(=O)N1CC=C(c2cc(NCCc3ccc(S(N)(=O)=O)cc3)nc(N)n2)CC1 [Example 135, 4-(2-{[6-(1-acetyl-1,2,3,6-tetrahydropyridin-4-yl)-2-aminopyrimidin-4-yl]amino}ethyl)benzene-1-sulfonamide] | < 200
CC(C)C(=O)N1CC=C(c2cc(NCCc3ccc(S(N)(=O)=O)cc3)nc(N)n2)CC1 [Example 136, 4-[2-({2-amino-6-[1-(2-methylpropanoyl)-1,2,3,6-tetrahydropyridin-4-yl]pyrimidin-4-yl}amino)ethyl]benzene-1-sulfonamide] | < 200
CS(=O)(=O)N1CC=C(c2cc(NCCc3ccc(S(N)(=O)=O)cc3)nc(N)n2)CC1 [Example 137, 4-(2-{[2-amino-6-(1-methanesulfonyl-1,2,3,6-tetrahydropyridin-4-yl)pyrimidin-4-yl]amino}ethyl)benzene-1-sulfonamide] | < 200
Nc1nc(NCCc2ccc(S(N)(=O)=O)cc2)cc(C2=CCN(C(=O)c3ccno3)CC2)n1 [Example 138, 4-[2-({2-amino-6-[1-(1,2-oxazole-5-carbonyl)-1,2,3,6-tetrahydropyridin-4-yl]pyrimidin-4-yl}amino)ethyl]benzene-1-sulfonamide] | < 200
Nc1nc(NCCc2ccc(S(N)(=O)=O)cc2)cc(C2=CCN(C(=O)C3CCCC3)CC2)n1 [Example 139, 4-(2-{[2-amino-6-(1-cyclopentanecarbonyl-1,2,3,6-tetrahydropyridin-4-yl)pyrimidin-4-yl]amino}ethyl)benzene-1-sulfonamide] | < 200
Nc1nc(NCCc2ccc(S(N)(=O)=O)cc2)cc(C2=CCN(C(=O)CC3CCCC3)CC2)n1 [Example 140, 4-[2-({2-amino-6-[1-(2-cyclopentylacetyl)-1,2,3,6-tetrahydropyridin-4-yl]pyrimidin-4-yl}amino)ethyl]benzene-1-sulfonamide] | < 200
Cc1ccc(C(=O)N2CC=C(c3cc(NCCc4ccc(S(N)(=O)=O)cc4)nc(N)n3)CC2)cc1 [Example 141, 4-[2-({2-amino-6-[1-(4-methylbenzoyl)-1,2,3,6-tetrahydropyridin-4-yl]pyrimidin-4-yl}amino)ethyl]benzene-1-sulfonamide] | < 200
Cc1c(Cl)cccc1-c1cc(NCCNc2ccc(C(N)=O)cn2)nc(N)n1 [Example 147] | < 200
Cc1c(Cl)cccc1-c1cc(NCCNc2ccc(NC(=O)NC(C)(C)C)cn2)nc(N)n1 [Example 156, 1-[6-[2-[[2-amino-6-(3-chloro-2-methyl-phenyl)pyrimidin-4-yl]amino]ethylamino]-3-pyridyl]-3-tert-butyl-urea] | < 200
Cc1c(Cl)cccc1-c1cc(NCCNc2ccc(NC(=O)OC(C)(C)C)cn2)nc(N)n1 [Example 157, tert-butyl N-[6-[2-[[2-amino-6-(3-chloro-2-methyl-phenyl)pyrimidin-4-yl]amino]ethylamino]-3-pyridyl]carbamate] | < 200
Cc1c(Cl)cccc1-c1cc(NCCNc2nc(N)nc(N)n2)nc(N)n1 [Example 158, N2-[2-[[2-amino-6-(3-chloro-2-methyl-phenyl)pyrimidin-4-yl]amino]ethyl]-1,3,5-triazine-2,4,6-triamine] | < 200
Cc1c(Cl)cccc1-c1cc(NCCc2ccc(C(N)=O)cc2F)nc(N)n1 [Example 162, 4-[2-[[2-amino-6-(3-chloro-2-methyl-phenyl)pyrimidin-4-yl]amino]ethyl]-3-fluoro-benzamide] | < 200
Cc1c(Cl)cccc1-c1cc(NCCSCc2ccc(CN(C)C)o2)nc(N)n1 [Example 175, 6-(3-chloro-2-methyl-phenyl)-N4-[2-[[5-[(dimethylamino)methyl]-2-furyl]methylsulfanyl]ethyl]pyrimidine-2,4-diamine] | < 200
Cc1c(Cl)cccc1-c1cc(NCCc2cccc(NC(=N)N)c2)nc(N)n1 [Example 179, 1-[3-[2-[[2-amino-6-(3-chloro-2-methyl-phenyl)pyrimidin-4-yl]amino]ethyl]phenyl]guanidine] | < 200
Cc1c(Cl)cccc1-c1cc(NCC#CCSc2cccc(C(=O)O)c2)nc(N)n1 [Example 193] | < 200
Cc1c(-c2cc(NCCc3ccc(S(N)(=O)=O)cc3)nc(N)n2)cccc1C(F)(F)F [Example 197, 4-[2-({2-amino-6-[2-methyl-3-(trifluoromethyl)phenyl]pyrimidin-4-yl}amino)ethyl]benzene-1-sulfonamide] | < 200
Cc1c(Cl)cccc1-c1cc(NCCOc2ccc(C(F)(F)F)cn2)nc(N)n1 [Example 199, 6-(3-chloro-2-methylphenyl)-N4-(2-{[5-(trifluoromethyl)pyridin-2-yl]oxy}ethyl)pyrimidine-2,4-diamine] | < 200
Cc1c(Cl)cccc1-c1cc(NCCOc2ccc(-c3nn[nH]n3)cc2)nc(N)n1 [Example 202, 6-(3-chloro-2-methylphenyl)-N4-{2-[4-(2H-1,2,3,4-tetrazol-5-yl)phenoxy]ethyl}pyrimidine-2,4-diamine] | < 200
Cc1c(Cl)cccc1-c1cc(NCC(O)c2ccc(S(C)(=O)=O)cc2)nc(N)n1 (stereo not drawn) [Example 215, 2-(2-amino-6-(3-chloro-2-methylphenyl)pyrimidin-4-ylamino)-1-(4-(methylsulfonyl)phenyl)ethanol] | < 200
Cc1c(Cl)cccc1-c1cc(NCC(O)c2ccc(S(N)(=O)=O)cc2)nc(N)n1 (stereo not drawn) [Example 216, 4-(2-(2-Amino-6-(3-chloro-2-methylphenyl)pyrimidin-4-ylamino)-1-hydroxyethyl)benzenesulfonamide] | < 200
CS(=O)(=O)c1ccc(CCNc2cc(-c3cccc(Cl)c3CO)nc(N)n2)cc1 [Example 217, (2-(2-Amino-6-(4-(methylsulfonyl)phenethylamino)pyrimidin-4-yl)-6-chlorophenyl)methanol] | < 200
Nc1nc(NCCc2ccc(S(N)(=O)=O)cc2)cc(-c2cccc(Cl)c2CO)n1 [Example 218, 4-(2-(2-Amino-6-(3-chloro-2-(hydroxymethyl)phenyl)pyrimidin-4-ylamino)ethyl)benzenesulfonamide] | < 200
